From article PMC12644484 (Scientific Reports, 2025)
Where two headings read alike, the source gives them in different places.

Tests used:
RNaseH2 [1] = target: T1, RNaseH2 (Homo sapiens, UniProt O75792); assay: Fluorogenic RNaseH2 activity assay (RNA/DNA hybrid substrate); assay type: biochemical; details: fluorescence assay, four-parameter logistic fit; read-out: RNaseH2 inhibition IC50
T1 construct: made in house; host or cells: E. coli BL21 (DE3) RIPL
T1 sequence (O75792 1-299): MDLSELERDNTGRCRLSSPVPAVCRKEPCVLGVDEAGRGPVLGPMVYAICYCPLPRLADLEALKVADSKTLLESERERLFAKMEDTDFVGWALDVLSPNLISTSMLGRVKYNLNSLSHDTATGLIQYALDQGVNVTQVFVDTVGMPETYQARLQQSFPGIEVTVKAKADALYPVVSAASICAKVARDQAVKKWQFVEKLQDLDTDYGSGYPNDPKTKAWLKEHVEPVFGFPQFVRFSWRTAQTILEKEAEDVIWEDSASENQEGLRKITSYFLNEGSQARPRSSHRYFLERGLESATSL
T1 sequence (Q5TBB1 1-312 partner): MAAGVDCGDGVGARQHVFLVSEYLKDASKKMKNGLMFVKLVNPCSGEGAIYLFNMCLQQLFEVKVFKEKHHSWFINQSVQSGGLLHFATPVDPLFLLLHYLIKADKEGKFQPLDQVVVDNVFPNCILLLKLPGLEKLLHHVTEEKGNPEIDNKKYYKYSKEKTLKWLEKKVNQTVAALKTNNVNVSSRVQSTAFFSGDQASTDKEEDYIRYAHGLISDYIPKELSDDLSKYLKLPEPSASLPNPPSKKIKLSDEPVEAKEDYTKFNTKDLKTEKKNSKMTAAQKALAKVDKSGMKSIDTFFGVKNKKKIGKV
T1 sequence (Q8TDP1 1-164 partner): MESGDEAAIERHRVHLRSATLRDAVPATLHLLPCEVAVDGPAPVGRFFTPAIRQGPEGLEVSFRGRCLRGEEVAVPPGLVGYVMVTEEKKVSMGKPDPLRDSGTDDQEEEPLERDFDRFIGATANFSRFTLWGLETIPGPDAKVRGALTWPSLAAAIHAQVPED
Protocol: Briefly, a biochemical activity assay was established employing a duplex RNA/DNA oligonucleotide containing an internally quenched fluorophore and a single ribonucleotide positioned so that RNaseH2-mediated incision would lead to dissociation and de-quenching. […] To identify inhibitors, we screened several compound libraries containing a total of 71394 chemical compounds (Fig. 1c).
(a) RNaseH2 activity assay. An 80 nM RNA/DNA hybrid substrate was incubated with the indicated concentrations of RNaseH2, and fluorescence was recorded over 45 minutes. Each data point represents the average of four technical replicates. (b) RNaseH2 inhibition. […] Each data point denotes the average (± SD) of two technical replicates and was fitted to a four-parameter logistic curve. (c) High-throughput screening for RNaseH2 inhibitors. Each symbol represents one technical replicate of 71394 screening compounds, 9495 DMSO solvent controls, and 3552 no-enzyme controls. […] (d) Z’-factor of high-throughput screening assay. […] (e) Hit validation experiments on six candidate RNaseH2 inhibitors. […]
RNaseH2 activity assay was performed at room temperature in 384-well plates (black OptiPlates, PerkinElmer). […] The samples were incubated at room temperature for 20–30 min, and fluorescence was recorded using a Tecan SPARK plate reader at an excitation wavelength of 610[10] nm and emission wavelength of 670[20] nm.

RNaseH2 [2] = target: T1, RNaseH2; details: read-out: RNaseH2 inhibition IC50, reported value; cited from earlier work

IC50 (RNaseH2 [1]): 5.6 µM
Structure (SMILES): O=C(CSc1ncnc2sc3c(c12)CCCC3)NCc1ccco1 [RHI002, N-(2-Furanylmethyl)−2-[(5,6,7,8-tetrahydro[1]benzothieno[2,3-d]pyrimidin-4-yl)thio]-acetamide]
IC50 (RNaseH2 [2]): 16 µM
